From PubChem BioAssay (NCI)
Several values for one entry are separate records, joined by “and”; a condition that tells them apart may be missing. Identical values can stand only once.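 Cultured in 96-well plates, cells were exposed to test compound for 48 hours across five concentrations. GI50: concentration for 50% inhibition of growth. TGI: concentration producing complete growth inhibition.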

Key:
Assay in all cases: NCI anticancer screen, dose series, 48 h
COLO 205 colon = tested on: COLO 205 colon
HCT-116 colon = tested on: HCT-116 colon
HL-60(TB) leukemia = tested on: HL-60(TB) leukemia
K-562 leukemia = tested on: K-562 leukemia
KM12 colon = tested on: KM12 colon
MOLT-4 leukemia = tested on: MOLT-4 leukemia
TK-10 renal = tested on: TK-10 renal
U251 CNS = tested on: U251 CNS
UACC-257 melanoma = tested on: UACC-257 melanoma
UO-31 renal = tested on: UO-31 renal

Row | SMILES | TGI (COLO 205 colon) | TGI (HCT-116 colon) [µM] | TGI (HL-60(TB) leukemia) [µM] | TGI (K-562 leukemia) [µM] | TGI (KM12 colon) [µM] | TGI (MOLT-4 leukemia) | TGI (TK-10 renal) | TGI (U251 CNS) [µM] | TGI (UACC-257 melanoma) | TGI (UO-31 renal) [µM] | GI50 (COLO 205 colon) [µM] | GI50 (HCT-116 colon) [µM] | GI50 (HL-60(TB) leukemia) [µM] | GI50 (K-562 leukemia) [µM] | GI50 (KM12 colon) [µM] | GI50 (MOLT-4 leukemia) [µM] | GI50 (TK-10 renal) [µM] | GI50 (U251 CNS) [µM] | GI50 (UACC-257 melanoma) [µM] | GI50 (UO-31 renal) [µM]
1 | COC(=O)C1=C(C)N(NC(=O)OC(C)(C)C)C(=O)C1=P(c1ccccc1)(c1ccccc1)c1ccccc1 | > 100 µM | > 100 | > 100 | > 100 | > 100 | > 100 µM | > 100 µM | > 100 | > 100 µM | > 100 | – | – | – | – | – | – | – | – | – | –
2 | NCC1Nc2ccccc2[C@@H](O)C1O (stereo partly drawn) | > 100 µM | > 100 | > 100 | > 100 | > 100 | > 100 µM | > 100 µM | > 100 | > 100 µM | > 100 | – | – | – | – | – | – | – | – | – | –
3 | COC(C(O)CO)C(O)C(O)C(=O)NNc1ccccc1 (stereo not drawn) | 28.7 µM | > 100 | > 100 | > 100 | > 100 | > 100 µM | > 100 µM | > 100 | > 100 µM | > 100 | – | – | – | – | – | – | – | – | – | –
4 | CC1CC[C@]2(C(=O)O)CCC3(C)C(=CC(=O)C4[C@@]5(C)CCC(=O)C(C)(C)C5CC[C@]43C)[C@@H]2[C@H]1C (stereo partly drawn) | 33.7 µM | 43 | 24.7 | > 100 | 56.1 | 32.2 µM | 90.2 µM | 98.8 | 96.9 µM | 38.1 | – | – | – | – | – | – | – | – | – | –
5 | C=C1C(=O)O[C@@H]2/C=C(\C)CC/C=C(/COC(C)=O)C[C@@H](OC(C)=O)[C@@H]12 | 14.1 µM | 14.6 | 8.52 | > 33.8 | 34.3 | 16.9 µM | 23.2 µM | 36.7 | 32.2 µM | 22.3 | – | – | – | – | – | – | – | – | – | –
6 | CC(C)n1nc(-c2cc3cc(O)ccc3[nH]2)c2c(N)ncnc21 | 4.19 µM | 14.4 | 5.77 | 36.1 | 10.8 | 6.2 µM | 2.31 µM | 10.9 | 1.7 µM | 0.726 | 0.363 | 0.634 | 1.26 | 0.579 | 0.307 | 0.315 | 0.178 | 0.565 | 0.161 | 0.0464
7 | O=S(=O)(N=S(c1ccccc1)c1ccccc1)c1ccccc1 | > 100 µM | > 100 | > 100 | > 100 | > 100 | > 100 µM | > 100 µM | > 100 | > 100 µM | > 100 | – | – | – | – | – | – | – | – | – | –
8 | O=C(N/N=C/c1ccccc1)c1c(-c2cccnc2)cnc2ccccc12 | > 100 µM | > 100 | > 100 | > 100 | > 100 | > 100 µM | > 100 µM | > 100 | > 100 µM | > 100 | – | – | – | – | – | – | – | – | – | –
9 | O=C1CCN2C(=O)CCN12 | > 100 µM | > 100 | > 100 | > 100 | > 100 | > 100 µM | > 100 µM | > 100 | > 100 µM | > 100 | – | – | – | – | – | – | – | – | – | –
10 | CC(C)C(Nc1c2ccccc2nc2ccccc12)C(=O)O (stereo not drawn) | > 100 µM | > 100 | > 100 | > 100 | > 100 | > 100 µM | > 100 µM | > 100 | > 100 µM | > 100 | – | – | – | – | – | – | – | – | – | –
11 | COc1ccc(Cn2cc3c(c2-c2ccccc2)CC(C)(C)c2cnoc2-3)cc1 | 5.1 µM | > 100 | 4.29 | > 100 | > 100 | > 100 µM | > 100 µM | > 100 | > 100 µM | > 100 | 1.65 | 1.47 | 0.82 | 0.377 | 0.783 | 2.82 | 2.91 | 2.99 | 9.64 | 3.08
12 | N#C/C(=C1C=C(Br)/C(=N\O)C=C\1Cl)c1cccc2ccccc12 | 5.86 µM | 15.6 | 11.6 | 14.3 | 19.4 | 17.6 µM | 24.1 µM | 10.7 | 20.5 µM | 24.1 | – | – | – | – | – | – | – | – | – | –
13 | CC(=O)[O-].CCN(CC)c1ccc(C=NCCN=Cc2ccc(N(CC)CC)cc2[O-])c([O-])c1.[Mn+3] | 32.8 µM | 33.3 | 38.3 | 61.3 | 33.7 | > 100 µM | > 100 µM | 29.3 | 55.5 µM | > 100 | 18.6 | 18.5 | 17.6 | 22.9 | 17.8 | 36.5 | 56.6 | 15.4 | 23 | > 100
14 | CN(C)C(=O)c1cc2cnc(Nc3ccc(-c4csc5c(=S)cc(N6CCOCC6)oc45)cc3)nc2n1C1CCCC1 | – | > 50 | 1.97 | > 50 | > 50 | > 50 µM | > 50 µM | > 50 | > 14.7 µM | 1.54 | 0.214 | 0.242 | 0.264 | 0.939 | 0.18 | 0.244 | 0.987 | 0.481 | 1.24 | 0.227
15 | Cn1c(=O)c(C(c2ccc([N+](=O)[O-])cc2)c2c(O)c3ccccc3n(C)c2=O)cc2ccccc21 (stereo not drawn) | > 100 µM | > 100 | > 100 | > 100 | > 100 | > 100 µM | 84.7 µM | 66.8 | 45.3 µM | > 100 | – | – | – | – | – | – | – | – | – | –
16 | COc1cc2c3c(n(CCCNC(=O)OCC4c5ccccc5-c5ccccc54)c(=O)c2cc1OC)-c1cc2c(cc1/C3=C\CCNC(=O)OCC1c3ccccc3-c3ccccc31)OCO2 | > 50 µM | > 12.9 | > 50 | > 35.8 | > 50 | > 50 µM | > 50 µM | > 36.7 | > 50 µM | > 50 | > 28 | – | 18.1 | 9.17 | > 27.9 | 5.45 | > 31.7 | > 17.8 | > 50 | > 50
17 | COc1cc2c(c(OC)c1OC)-c1ccc(OC)c(=O)cc1[C@@H](NC(=O)c1ccccc1)CC2 | 0.0153 µM and 0.0138 µM | – | < 0.013 | – | 1.14 | 30 µM and > 73.2 µM | 30 µM and > 100 µM | 4.06 | 30 µM and > 100 µM | > 100 | 0.00399 | < 0.003 | – | < 0.003 | – | < 0.003 | 0.0806 | – | 24.2 | > 30
